Data published in US12023330B2, “Use of manzamines as antiproliferative agent” (priority 2020, dated 2024).

Columns and labels:
[1] = tested on: normal human keratinocytes (HKc); test: Cell growth kinetics of normal keratinocytes; assay type: cell-based; conditions: 4 μM stated for compound 4; 48 h and 72 h; vs DMSO control
Experimental: Based on MoIN, the additional manzamine-related compounds such as manzamine D (2), manzamine F (3), 8-hydroxymanzamine A (4), and ircinal A (5) were tested for their biological activities targeting cervical cancer cell lines (SiHa and CaSki).
Generation of Normal Human Keratinocytes (HKc). The generation and processing of normal HKc from de-identified foreskin tissue samples has previously been described in our studies, see Pirisi, L.; Yasumoto, S.; Feller, M.; Doniger, J.; DiPaolo, J. A. J. Virol. 1987, 61, 1061-1066, and was implemented with the following modifications: dispase was used in lieu of collagenase, and a trypsinization step was added to release the epidermal cells. Briefly, to generate normal HKc primary cultures, the foreskin tissue, free of subcutaneous tissue, was placed in 10% dispase in phosphate buffer saline (PBS) and incubated overnight at 37° C. The next day, the epidermis was separated from the dermis, and processed mechanically by shredding the tissue into smaller pieces that were then treated with Trypsin/EDTA for 10 minutes at 37° C. Following the addition of fetal bovine serum (10%) to stop the trypsin action, cells were collected by centrifugation and plated in keratinocytes serum free medium (KSFM).
Cell Growth Kinetics. […] The cell proliferation activity was determined by cell counting under the microscope with a hemocytometer using trypan blue staining.

[2] = tested on: cervical cancer cell lines; test: Colony formation assay; assay type: cell-based, human; conditions: 2 and 4 μM; one week
Experimental: (§1) To maintain the treatment uniformity across the cell lines, we selected optimal dose concentration of 1 to 4 μM, and treated C33A, HeLa, SiHa and CaSki cell lines.
Colony Formation Assay. Cancer cell lines were seeded at a density of 1×10^3 cells/ml in 6-well plates. Following overnight incubation, the cells were treated with manzamine A (1) (2 μM and 4 μM) and incubated in a tissue culture incubator at 37° C. with 5% CO2. After one week, the developed cell colonies were fixed with 4% paraformaldehyde, stained with 0.5% crystal violet, and were photographed.

[3] = tested on: C33A, HeLa, SiHa and CaSki cell lines; test: Cell growth kinetics; assay type: cell-based, human
Experimental: as §1
Cell Growth Kinetics. Cervical cancer cells (1×10^6) or HKc (2×10^5) were plated in 100 mm tissue culture petri dish or 6-well plates. Following overnight incubation, cells were treated with 2 μM or 4 μM concentrations of manzamine A (1) derivatives for different time points (24, 48 and 72 hours). Dimethyl sulphoxide (DMSO) was used as control. The cell proliferation activity was determined by cell counting under the microscope with a hemocytometer using trypan blue staining.

[4] = Weight loss at high doses; assay type: in vivo
Description: The manzamine class of marine alkaloids is attractive in its potential for the development of novel therapeutics. This group has among the most extensively studied marine natural products to date, being found in more than 16 species of Indo-Pacific sponges distributed within distinct geographical regions. […] These molecules also show interesting activity as neuroprotective and anti-inflammatory agents, HIV/AIDS-associated opportunistic infections, and inhibition of cancer proliferative and metastatic activity. See Ridley, R. G.; Matile, H.; Jaquet, C.; Dorn, A.; Hofheinz, W.; Leupin, W.; Masciadri, R.; Theil, F. P.; Richter, W. F.; Girometta, M. A.; Guenzi, A.; Urwyler, H.; Gocke, E.; Potthast, J. M.; Csato, M.; Thomas, A.; Peters, W. Antimicrob. Agents Chemother. 1997, 41, 677-686. […] It is anticipated that short-term weight-loss would be less problematic or would not necessarily offset the therapeutic gain in cancer patients.

[5] = tested on: HeLa cells; test: Apoptosis analysis (annexin V and PI staining); assay type: cell-based, human
Experimental: (§2) Since programmed cell death (apoptosis) is a key mechanism by which anti-cancer drugs kill cancer cells, we determined the apoptotic effect of manzamine A on cervical cancer cells using annexin V and PI staining. […] Given the sensitivity of C33A and HeLa cell lines to manzamine A, an increase in apoptosis was expected. […] CaSki cells were the least sensitive and corresponds to the IC50 values as in FIG. 2.
(§3) Cell-cycle and Apoptosis Analysis. Cervical cancer cells were seeded and treated with different concentrations of manzamine A (1) as above. Following trypsinization, one part of the cells was washed with PBS and fixed in chilled 70% ethanol on ice for 30 min. Cells were treated with RNAse A (1 mg/ml) at room temperature for 30 min and stained with propidium iodide (PI: 20 μg/ml). Cell-cycle distribution was analyzed by flow cytometry (Beckman Coulter Epics Elite, Beckman). A minimum of 10,000 events were counted per sample, and the data were analyzed using CXP software (Beckman Coulter) for the proportions of cells in G0/G1, S and G2/M phases of the cell cycle. The second part of the cells were washed twice with PBS and re-suspended in the buffer containing Alexa Fluor conjugated-Annexin-V and PI (Life Technologies, USA). The double staining of the cells was analyzed by flow cytometric analysis. A total of 10,000 cell events were collected to analyze the extent of early, late apoptosis, or necrosis from each sample with the percentages of bound annexin-V^+/PI^−, annexin V^+/PI^+, and annexin V^−/PI^+, respectively.

[6] = tested on: C33A cells; test: Apoptosis analysis (annexin V and PI staining); assay type: cell-based, human
Experimental: as §2, §3

[7] = tested on: CaSki cells; test: Apoptosis analysis (annexin V and PI staining); assay type: cell-based, human; conditions: 4 μM, 48 hours
Experimental: as §2, §3

[8] = tested on: SiHa cells; test: Apoptosis analysis (annexin V and PI staining); assay type: cell-based, human; conditions: 4 μM, 48 hours
Experimental: as §2, §3

Question: With `O[C@]12C=C(c3nccc4c3[nH]c3ccccc34)[C@@H]3CCN(CCCC/C=C\CC1)C[C@@]31C[C@@H]3/C=C\CCCCN3[C@H]12` [manzamine A] as the compound, how does the “cell growth kinetics of normal HKc” value [1] read?
Answer: no adverse effect

Question: What about the “colony formation (long-term cell growth)” value [2] of the same compound?
Answer: inhibited the cell growth

Question: What about the “cervical cancer cell proliferation” value ([3]; 1 to 4 μM, time- and dose-dependent, vs DMSO control) of the same compound?
Answer: significantly inhibited

Question: And the “anti-proliferative, non-cytotoxic concentrations” value ([3]; cervical cancer cells)?
Answer: up to 4 μM

Question: What about the body weight [4] of the same compound?
Answer: weight loss

Question: What about the “percentage of induced apoptotic cells (apoptosis+ necrosis)” value (shortened to “percentage of induced apoptotic cells”) ([5]; 4 μM, 48 hours) of the same compound?
Answer: 75.9%

Question: What about the apoptosis ([5]; forty-eight hours treatment) of the same compound?
Answer: significant increase

Question: What about the “percentage of induced apoptotic cells” value ([6]; 4 μM, 48 hours) of the same compound?
Answer: 36.5%

Question: And the apoptosis and necrosis ([6]; 24 hours)?
Answer: induces apoptosis

Question: And the “percentage of induced apoptotic cells” value [7]?
Answer: 23.2%

Question: What about the “percentage of induced apoptotic cells” value [8] of the same compound?
Answer: 33.6%
